Target: T1, protein encoded by ph01207 (Homo sapiens, UniProt O60241, DEL308-362)
T1 construct: expressed in transfected cells; host or cells: CHO-K1 (HA-ph01207#10-6, FERM BP-10101), T8HA-attR/pCINeo
T1 sequence (O60241 with tags, fused parts or gaps DEL308-362): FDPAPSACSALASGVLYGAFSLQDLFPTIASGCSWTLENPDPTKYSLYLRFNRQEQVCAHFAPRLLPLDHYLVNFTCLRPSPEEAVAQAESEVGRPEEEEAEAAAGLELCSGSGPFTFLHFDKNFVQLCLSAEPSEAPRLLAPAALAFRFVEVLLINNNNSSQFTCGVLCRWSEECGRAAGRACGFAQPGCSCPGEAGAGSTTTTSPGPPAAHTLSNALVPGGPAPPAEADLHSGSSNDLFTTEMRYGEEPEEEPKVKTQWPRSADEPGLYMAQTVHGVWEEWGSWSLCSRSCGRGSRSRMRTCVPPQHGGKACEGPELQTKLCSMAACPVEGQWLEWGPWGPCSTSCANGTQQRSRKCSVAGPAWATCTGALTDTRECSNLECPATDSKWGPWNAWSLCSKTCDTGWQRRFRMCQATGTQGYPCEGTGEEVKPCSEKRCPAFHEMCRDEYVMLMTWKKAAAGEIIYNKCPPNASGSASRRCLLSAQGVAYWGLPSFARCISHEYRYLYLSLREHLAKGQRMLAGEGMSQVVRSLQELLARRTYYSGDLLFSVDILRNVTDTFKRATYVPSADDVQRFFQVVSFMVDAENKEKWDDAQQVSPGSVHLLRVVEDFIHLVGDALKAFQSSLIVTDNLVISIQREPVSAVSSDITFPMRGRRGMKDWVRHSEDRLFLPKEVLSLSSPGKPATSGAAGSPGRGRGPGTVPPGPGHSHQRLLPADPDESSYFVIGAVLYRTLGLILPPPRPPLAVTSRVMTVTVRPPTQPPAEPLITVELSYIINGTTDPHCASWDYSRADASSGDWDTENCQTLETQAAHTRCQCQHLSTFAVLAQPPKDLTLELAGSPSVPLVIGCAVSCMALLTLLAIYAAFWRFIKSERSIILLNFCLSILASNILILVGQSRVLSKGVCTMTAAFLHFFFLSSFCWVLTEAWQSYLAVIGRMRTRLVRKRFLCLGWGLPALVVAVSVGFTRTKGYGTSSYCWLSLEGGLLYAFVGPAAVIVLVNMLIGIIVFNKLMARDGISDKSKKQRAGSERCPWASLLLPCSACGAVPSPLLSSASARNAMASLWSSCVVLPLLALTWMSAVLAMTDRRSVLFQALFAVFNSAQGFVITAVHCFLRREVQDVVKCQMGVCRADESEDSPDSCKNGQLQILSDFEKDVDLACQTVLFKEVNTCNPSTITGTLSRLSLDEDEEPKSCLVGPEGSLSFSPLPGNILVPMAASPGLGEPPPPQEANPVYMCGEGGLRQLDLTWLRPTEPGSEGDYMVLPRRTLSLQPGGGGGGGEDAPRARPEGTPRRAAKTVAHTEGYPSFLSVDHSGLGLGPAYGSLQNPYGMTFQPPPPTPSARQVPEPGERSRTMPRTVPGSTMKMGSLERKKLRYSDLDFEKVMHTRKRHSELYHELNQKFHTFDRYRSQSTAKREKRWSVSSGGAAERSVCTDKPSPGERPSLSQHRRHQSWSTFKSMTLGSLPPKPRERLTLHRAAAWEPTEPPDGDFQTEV
Assay: Changes in intracellular Ca2+ concentration in HA-ph01207#10-6 cell strain (CHO-K1 stably expressing ph01207)
Type: cell-based
Method: Changes in the intracellular calcium (Ca^2+) concentration induced by CCK-8S (SEQ ID NO: 14), CCK-8NS, or CCK-4 were measured using the cell strains expressing ph01207 prepared in Example 2. The cell strains prepared in Example 2 were eight strains that expressed the protein encoded by ph01207 as FLAG-tag fusion proteins and four strains that expressed the protein encoded by ph01207 as HA-tag fusion proteins. Of these, the HA-ph01207#10-6 cell strain, a strain obtained by cloning one of the cell strains that stably expressed the protein encoded by ph01207 as HA-tag fusion proteins, was used in this example. CCK-8NS was a CCK octapeptide having the same amino acid sequence as that of CCK-8S (SEQ ID NO: 14), but a region from the C terminus to the seventh tyrosine residue was not sulfated. CCK-4 was a tetrapeptide comprising residues from the C terminus to the fourth amino acid of CCK-8S (SEQ ID NO: 14).
The specific method for measuring changes in the intracellular Ca^2+ concentration in the HA-ph01207#10-6 cell strain induced by CCK-8S (SEQ ID NO: 14) and the results are described below. The HA-ph01207#10-6 cell strain was seeded on a 96-well plate (a plate with a black wall and a transparent bottom) at a cell count of 2×10^4/100 μL medium/well and cultured at 37° C. in the presence of 5% CO2. As a medium, DMEM/F12 (Gibco) containing 10% fetal calf serum (Moregate) was used. On the following day, 50 μL of the medium was removed from each well, 50 μL of a loading buffer was added to each well, and the mixture was reacted at room temperature for 1.5 h, so that a fluorescent dye contained in the loading buffer should be taken up into the cell. The loading buffer was prepared by dissolving component A of the FLIPR Calcium 3 Assay Kit (Molecular Device) in a solution obtained by adding 0.1 mL of 500 mM probenecid (Sigma) to 9.9 mL of component B. After reaction, changes over time in the fluorescence intensity in each well after addition of CCK-8S (Peptide Institute, Inc.) were measured using the FLEX station (Molecular Device). Furthermore, similar measurement was performed for CCK-8NS (Peptide Institute, Inc.) and CCK-4 (Peptide Institute, Inc.). 0.52 mg of CCK-8S (SEQ ID NO: 14) was dissolved in 4.5 mL of 1% NaHCO3 (Wako) to prepare a solution having 0.1 mM concentration. 0.53 mg of CCK-8NS was dissolved in 0.50 mL of dimethyl sulfoxide (DMSO, Sigma), and then 4.50 mL of redistilled water H2O was added to prepare a solution having 0.1 mM concentration. 0.54 mg of CCK-4 was dissolved in 0.46 mL of DMSO, 4.09 mL of redistilled water was added to prepare a solution having 0.2 mM concentration. […]

Compound	Change in intracellular Ca2+ concentration (fluorescence intensity) (A23187 10 μM, positive control)	Change in intracellular Ca2+ concentration (fluorescence intensity) (peptide at final concentration 1 nM)
CNc1ccc2oc(C[C@H]3O[C@@]4(CC[C@H]3C)O[C@H]([C@H](C)C(=O)c3ccc[nH]3)[C@H](C)C[C@H]4C)nc2c1C(=O)O [A23187]	increased	
cholecystokinin octapeptide sulfated form [CCK-8S]		increased
